Structures can show the parent of a compound that is named as a salt. Where two headings read alike, the source gives them in different places.
Columns and labels:
[1] = tested on: HCT-116 cell line; experiment: Inhibition of cell growth, tetrazolium salt (MTT) assay; type: cell-based; conditions: for IC50: Homo sapiens, HCT-116, 120 h, MTT, three to five days, read-out: HCT-116 IC50; for HCT-116 % Inhibition at 0.25 μM: 0.25 μM compound
In short: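 Cells in McCoy's 5A medium were left 4 h, then given graded compound concentrations in 0.5% (v/v) DMSO and incubated three to five days at 37° C (5% CO2). MTT was added to 0.2 mg/mL for 4 h more; DMSO-solubilized formazan was read at 540 nm against 0.5% DMSO-only controls.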

[2] = biological target: human CDK4 and genetically truncated (1-264) cyclin D3 (Homo sapiens, UniProt P11802); experiment: Inhibition of CDK4/Cyclin D Retinoblastoma Kinase Activity; type: biochemical; conditions: for Ki: apparent Ki, CDK4/truncated cyclin D3, Rb fragment substrate, 25 μM ATP
In short: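 Human CDK4/truncated cyclin D3 (1-264) complex from baculovirus-infected insect cells, 5 nM, phosphorylating Rb fragment (residues 386-928, His-tagged) with 25 μM [32/33P]ATP in HEPES pH 7.4, MgCl2, 2% DMSO at 30° C. for 20 min (60 min for tight binders). Filter-captured radioactivity by phosphorimager; apparent Ki from competitive or tight-binding fits.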

[3] = biological target: CDK2/Cyclin A (Homo sapiens, UniProt P24941); experiment: Inhibition of CDK2/Cyclin A Retinoblastoma Kinase Activity; type: biochemical; conditions: for Ki: apparent Ki, CDK2/proteolyzed cyclin A, Rb fragment substrate, 25 μM ATP
In short: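 Baculovirus-expressed CDK2 complexed with proteolyzed cyclin A (10 or 19 nM), Rb fragment substrate, 25 μM [32P/33P]ATP, HEPES pH 7.4, 30 °C for 60 or 75 min under initial-rate conditions. Filter capture and phosphorimager readout; apparent Ki fitted to competitive or tight-binding competitive inhibition.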

[4] = 0.1 μM compound, HCT-116, Table 4
[5] = 0.03 μM compound, Table 2, 0.03 µM
[6] = 0.1 μM compound, HCT-116, Table 3

Chain of human CDK4 and genetically truncated (1-264) cyclin D3 (P11802 whole entry, the tested form may be a part): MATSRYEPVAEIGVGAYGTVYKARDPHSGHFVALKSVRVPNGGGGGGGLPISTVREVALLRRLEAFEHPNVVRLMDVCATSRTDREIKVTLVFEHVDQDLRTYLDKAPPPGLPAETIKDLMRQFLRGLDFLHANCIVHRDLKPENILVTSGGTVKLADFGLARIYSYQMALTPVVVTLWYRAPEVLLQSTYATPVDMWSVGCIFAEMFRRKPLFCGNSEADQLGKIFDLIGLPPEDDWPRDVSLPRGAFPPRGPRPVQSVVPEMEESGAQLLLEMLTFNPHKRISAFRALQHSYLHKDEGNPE
Chain of human CDK4 and genetically truncated (1-264) cyclin D3 (P30281 1-264 partner): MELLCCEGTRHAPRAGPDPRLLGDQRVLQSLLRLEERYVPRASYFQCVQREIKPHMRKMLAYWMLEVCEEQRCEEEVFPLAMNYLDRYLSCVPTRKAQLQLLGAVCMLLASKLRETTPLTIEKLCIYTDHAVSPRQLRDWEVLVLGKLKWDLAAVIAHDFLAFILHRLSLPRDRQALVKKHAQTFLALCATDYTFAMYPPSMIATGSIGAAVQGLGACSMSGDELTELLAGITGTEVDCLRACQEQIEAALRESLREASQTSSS

## CN(C)CCOc1ccc(S(=O)(=O)N2CCC(Nc3nc(N)c(C(=O)c4c(F)cccc4F)s3)CC2)cn1 [Example H3, 1-(4-Amino-2-{1-[6-(2-dimethylamino-ethoxy)-pyridine-3-sulfonyl]-piperidin-4-ylamino}-thiazol-5-yl)-1-(2,6-difluoro-phenyl)-methanone Hydrochloride]
[1]; first HCT-116 column (c4)
  IC50: 51 nM
[1]; second HCT-116 column (c5)
  IC50: 320 nM
[2]
  Ki: 0.67 nM
[3]
  Ki: 1.8 nM

## Nc1nc(NC2CCN(C(=O)c3cc([N+](=O)[O-])cc([N+](=O)[O-])c3)CC2)sc1C(=O)c1c(F)cccc1F [Example Q70]
[1]; [4]
  HCT-116 % Inhibition at 0.1 μM: 5%
[1]; HCT-116, Table 4
  HCT-116 % Inhibition at 0.25 μM: 26%
[2]; 0.03 μM compound, Table 4
  CDK4 % Inhibition at 0.03 μM: 38%
[3]; 0.03 μM compound, Table 4
  CDK2 % Inhibition at 0.03 μM: 19%

## Nc1nc(NC2CCN(C(=O)c3cnc4ccccc4n3)CC2)sc1C(=O)c1c(F)cccc1F [Example Q67]
[1]; [4]
  HCT-116 % Inhibition at 0.1 μM: 9%
[1]; HCT-116, Table 4
  HCT-116 % Inhibition at 0.25 μM: 30%
[2]; 0.03 μM compound, Table 4
  CDK4 % Inhibition at 0.03 μM: 50%
[3]; 0.03 μM compound, Table 4
  CDK2 % Inhibition at 0.03 μM: 13%

## Nc1nc(NC2CCN(C(=O)CNc3ccc(O)cc3)CC2)sc1C(=O)c1c(F)cccc1F [Example R169]
[1]; HCT-116 cells, at 0.1 μM
  HCT-116 % Inhibition at 0.1 μM: 0%
[1]; HCT-116 cells
  HCT-116 5 Inhibition at 0.25 μM: 39
[2]; at 0.03 μM
  CDK4 % Inhibition at 0.03 μM: 40%
[3]; at 0.03 μM
  CDK2 % Inhibition at 0.03 μM: 22%

## CN1CCN(c2ccc(S(=O)(=O)N3CCC(Nc4nc(N)c(C(=O)c5c(F)cccc5F)s4)CC3)cn2)CC1 [Example G5, 1-(4-Amino-2-{1-[6-(4-methyl-piperazin-1-yl)-pyridine-3-sulfonyl]-piperidin-4-ylamino}-thiazol-5-yl)-1-(2,6-difluoro-phenyl)-methanone]
[1]; first HCT-116 column (c4)
  IC50: 29 nM
[1]; second HCT-116 column (c5)
  IC50: > 500 nM
[2]
  Ki: 1.3 nM
[3]
  Ki: 1.3 nM

## CC(NC(=O)N1CCC(Nc2nc(N)c(C(=O)c3c(F)cccc3F)s2)CC1)c1ccccc1 (stereo not shown) [Example O66]
[1]; HCT-116, Table 2, 0.25 µM
  HCT-116 % Inhibition at 0.25 μM: 36%
[2]; [5]
  CDK4 % Inhibition at 0.03 μM: −1%
[3]; [5]
  CDK2 % Inhibition At 0.03 μM: 32%

## CC(=O)Nc1ccc(S(=O)(=O)N2CCC(Nc3nc(N)c(C(=O)c4c(F)cccc4F)s3)CC2)cc1 [Example F5, N-(4-{4-[4-Amino-5-(2,6-difluoro-benzoyl)-thiazol-2-ylamino]-piperidine-1-sulfonyl}-phenyl)-acetamide]
[1]; first HCT-116 column (c4)
  IC50: 500 nM
[1]; second HCT-116 column (c5)
  IC50: 1300 nM
[2]
  Ki: 1 nM
[3]
  Ki: < 1 nM

## Cc1cc(C)c(C(=O)N2CCC(Nc3nc(N)c(C(=O)c4c(F)cccc4F)s3)CC2)c(C)c1 [Example R127]
[1]; HCT-116 cells, at 0.1 μM
  HCT-116 % Inhibition at 0.1 μM: 0%
[1]; HCT-116 cells
  HCT-116 5 Inhibition at 0.25 μM: 36
[2]; at 0.03 μM
  CDK4 % Inhibition at 0.03 μM: 20%
[3]; at 0.03 μM
  CDK2 % Inhibition at 0.03 μM: 28%

## CN1CCCC1c1ccc(S(=O)(=O)N2CCC(Nc3nc(N)c(C(=O)c4c(F)cccc4F)s3)CC2)cc1 (stereo not shown) [Example F24, 1-[4-Amino-2-{1-[4-(1-methyl-pyrrolidin-2-y)-benzenesulfonyl]-piperidin-4-ylamino}-thiazol-5-yl)-1-(2,6-difluoro-phenyl)-methanone Dihydrochloride]
[1]; first HCT-116 column (c4)
  IC50: 590 nM
[1]; second HCT-116 column (c5)
  IC50: 1600 nM
[2]
  Ki: 0.34 nM
[3]
  Ki: < 1 nM

## CCCCOc1ccc(C(C)(C)CC(C)(C)C)cc1S(=O)(=O)N1CCC(Nc2nc(N)c(C(=O)c3c(F)cccc3F)s2)CC1 [Example P73]
[1]; [6]
  HCT-116 % Inhibition at 0.1 μM: 16%
[1]; HCT-116, Table 3
  HCT-116 % Inhibition at 0.25 μM: 30%
[2]; 0.03 μM compound, Table 3
  CDK4 % Inhibition at 0.03 μM: 1%
[3]; 0.03 μM compound, Table 3
  CDK2 % Inhibition at 0.03 μM: −28%

## Nc1nc(NC2CCN(S(=O)(=O)c3ccc(CN4CCCC4)cc3)CC2)sc1C(=O)c1c(F)cccc1F [Example J6, 1-{4-Amino-2-[1-(4-pyrrolidin-1-ylmethyl-benzenesulfonyl)-piperidin-4-ylamino]-thiazol-5-yl}-1-(2,6-difluoro-phenyl)-methanone Hydrochloride]
[1]; first HCT-116 column (c4)
  IC50: 390 nM
[1]; second HCT-116 column (c5)
  IC50: 2000 nM
[2]
  Ki: 0.58 nM
[3]
  Ki: < 1 nM

## Nc1nc(NC2CCN(S(=O)(=O)c3ccc(I)cc3)CC2)sc1C(=O)c1c(F)cccc1F [Example P16]
[1]; [6]
  HCT-116 % Inhibition at 0.1 μM: 34%
[1]; HCT-116, Table 3
  HCT-116 % Inhibition at 0.25 μM: 35%
[2]; 0.03 μM compound, Table 3
  CDK4 % Inhibition at 0.03 μM: 67%
[3]; 0.03 μM compound, Table 3
  CDK2 % Inhibition at 0.03 μM: 71%

## Cc1ccc(C(=O)N2CCC(Nc3nc(N)c(C(=O)c4c(F)cccc4F)s3)CC2)cc1 [Example Q35]
[1]; [4]
  HCT-116 % Inhibition at 0.1 μM: 3%
[1]; HCT-116, Table 4
  HCT-116 % Inhibition at 0.25 μM: 21%
[2]; 0.03 μM compound, Table 4
  CDK4 % Inhibition at 0.03 μM: 64%
[3]; 0.03 μM compound, Table 4
  CDK2 % Inhibition at 0.03 μM: 35%

## N#Cc1ccc(S(=O)(=O)N2CCC(Nc3nc(N)c(C(=O)c4c(F)cccc4F)s3)CC2)cc1 [Example P47]
[1]; [6]
  HCT-116 % Inhibition at 0.1 μM: 0%
[1]; HCT-116, Table 3
  HCT-116 % Inhibition at 0.25 μM: 26%
[2]; 0.03 μM compound, Table 3
  CDK4 % Inhibition at 0.03 μM: 82%
[3]; 0.03 μM compound, Table 3
  CDK2 % Inhibition at 0.03 μM: 81%
